Measured values reported in article PMC2997942 (Molecular pharmaceutics, 2010).
Like-named read-outs stand apart in the source and are kept apart here.

Legend:
OCTN2 [1] = target: T1, OCTN2 (Homo sapiens, UniProt O76082); details: read-out: Ki or IC50; Caki-1 (human proximal tubule cell line); cited from earlier work
T1 sequence (O76082 1-557): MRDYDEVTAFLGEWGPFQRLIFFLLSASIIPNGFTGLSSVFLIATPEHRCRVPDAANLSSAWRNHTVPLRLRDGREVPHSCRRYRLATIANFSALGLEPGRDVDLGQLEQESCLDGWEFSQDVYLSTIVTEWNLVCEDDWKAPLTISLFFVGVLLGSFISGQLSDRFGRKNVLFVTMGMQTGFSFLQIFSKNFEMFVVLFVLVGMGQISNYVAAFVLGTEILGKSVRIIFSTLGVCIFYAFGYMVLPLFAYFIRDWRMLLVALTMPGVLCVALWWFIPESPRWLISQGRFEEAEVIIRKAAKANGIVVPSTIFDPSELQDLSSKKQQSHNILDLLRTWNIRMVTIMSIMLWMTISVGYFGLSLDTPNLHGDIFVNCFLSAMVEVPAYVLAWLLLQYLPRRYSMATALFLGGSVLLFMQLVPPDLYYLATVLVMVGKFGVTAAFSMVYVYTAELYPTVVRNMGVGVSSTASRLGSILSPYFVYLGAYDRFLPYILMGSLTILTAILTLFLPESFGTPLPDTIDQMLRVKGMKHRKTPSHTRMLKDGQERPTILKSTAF

OCTN2 [2] = target: T1, OCTN2; details: hOCTN2-Transfected MDCKII Cells, cited from earlier work; for Ki: read-out: Ki or IC50
[3] = clinical; ref Supplemental Table S6 references 1-19; cited from earlier work
OCTN2 [4] = target: T1, OCTN2; details: read-out: Ki or IC50; L6 cells overexpressing hOCTN2; cited from earlier work
human OCTN2 = details: read-out: Ki or IC50; Hela with human OCTN2; cited from earlier work
OCTN2 [5] = target: T1, OCTN2; assay: Inhibition of L-carnitine uptake in stably transfected hOCTN2-MDCK cells; assay type: cell-based; details: Observed Ki (±SEM), test set, 10 min, competitive inhibition model
rat OCTN2 [6] = details: L6 stable cell line with rat OCTN2; cited from earlier work
[7] = in vivo; cited from earlier work
OCTN2 [8] = target: T1, OCTN2; details: read-out: Ki or IC50; BeWo (human placental cell line); cited from earlier work
OCTN2 [9] = details: Mouse enterocyte; cited from earlier work
Rat kidney OCTN2 = details: read-out: Ki or IC50; Rat kidney OCTN2 reconstituted in liposomes; cited from earlier work
rat OCTN2 [10] = details: read-out: Ki or IC50; HEK stable cell line with rat OCTN2; cited from earlier work
[11] = tested on: Mouse myoblastic C2C12 cells; details: read-out: Ki or IC50; cited from earlier work

Q: Which Ki (OCTN2 [1]) does the source give for `CCCC[N+]1(C)C2CC(OC(=O)C(CO)c3ccccc3)CC1C1OC12` (single isomer, unassigned; (-)) [(−)-N- butylscopolamine] here?
A: Its Ki is 1010 µM.

Q: With `CCCC(=O)Nc1ccc(OCC(O)CNC(C)C)c(C(C)=O)c1` (stereo not drawn) [Acebutolol] as the compound, how does the “Ki or IC50” value (OCTN2 [2]) read?
A: Its value is “Not inhibitor”.

Q: And the “Documented to cause rhabdomyolysis and/or carnitine deficiency in the literature” value (shortened to “Documented”) [3]?
A: Its value is “No”.

Q: Which “Ki or IC50” value (OCTN2 [2]) does the source give for `C[C@H](CS)C(=O)N1CCC[C@H]1C(=O)O` [Captopril] here?
A: The value was “Not inhibitor”.

Q: Which Ki (OCTN2 [4]) does the source give for `Cc1nnc(SCC2=C(C(=O)O)N3C(=O)[C@@H](NC(=O)Cn4cnnn4)[C@H]3SC2)s1` [Cefazolin] here?
A: The Ki was 6740 µM.

Q: With `CO/N=C(\C(=O)N[C@@H]1C(=O)N2C(C(=O)[O-])=C(C[N+]3(C)CCCC3)CS[C@H]12)c1csc(N)n1` [Cefepime] as the compound, how does the Ki (human OCTN2) read?
A: The Ki was 1700 µM.

Q: What does the source list for `CO/N=C(\C(=O)N[C@@H]1C(=O)N2C(C(=O)[O-])=C(C[n+]3ccc(N)n3CCO)CS[C@H]12)c1csc(N)n1` [Cefoselis]?
A: Documented to cause rhabdomyolysis and/or carnitine deficiency in the literature [3]: Yes[3]; Ki (human OCTN2): 6400 µM

Q: For `CO/N=C(\C(=O)N[C@@H]1C(=O)N2C(C(=O)O)=C(COC(N)=O)CS[C@H]12)c1ccco1` [Cefuroxime], which Ki (OCTN2 [4]) is on record?
A: Its Ki is 525 µM.

Q: And the “Documented” value [3]?
A: The value was “Yes[9]”.

Q: With `O=C(Cc1cccs1)N[C@@H]1C(=O)N2C(C(=O)[O-])=C(C[n+]3ccccc3)CS[C@H]12` [Cephaloridine] as the compound, how does the Ki (human OCTN2) read?
A: Its Ki is 230 µM.

Q: Which “Documented” value [3] does the source give for `O=C(O)COCCN1CCN(C(c2ccccc2)c2ccc(Cl)cc2)CC1` (stereo not drawn) [Cetirizine] here?
A: The value was “No”.

Q: With `CN/C(=N/CCSCc1nc[nH]c1C)NC#N` [Cimetidine] as the compound, how does the “Documented” value [3] read?
A: The value was “No”.

Q: Which results are given for `COc1cc(N)c(Cl)cc1C(=O)NC1CCN(CCCOc2ccc(F)cc2)CC1OC` (stereo not drawn) [Cisapride]?
A: Ki (OCTN2 [5]): 66.7 ± 9.8 µM; Documented to cause rhabdomyolysis and/or carnitine deficiency in the literature [3]: Yes[13]

Q: Which results are given for `N.N.[Cl][Pt][Cl]` [Cisplatin]?
A: Ki or IC50 (rat OCTN2 [6]): Not inhibitor; Documented to cause rhabdomyolysis and/or carnitine deficiency in the literature [3]: Yes[19]; Cmax [7]: 8130 nM

Q: For `COc1cccc2c1C(=O)c1c(O)c3c(c(O)c1C2=O)C[C@@](O)(C(C)=O)C[C@@H]3O[C@H]1C[C@H](N)[C@H](O)[C@H](C)O1` [Daunorubicin], which Ki (OCTN2 [5]) is on record?
A: The Ki was 502 ± 41 µM.

Q: And the “Documented” value [3]?
A: The value was “No”.

Q: With `C[C@H]1O[C@@H](O[C@H]2[C@@H](O)C[C@H](O[C@H]3[C@@H](O)C[C@H](O[C@H]4CC[C@@]5(C)[C@H](CC[C@@H]6[C@@H]5C[C@@H](O)[C@]5(C)[C@@H](C7=CC(=O)OC7)CC[C@]65O)C4)O[C@@H]3C)O[C@@H]2C)C[C@H](O)[C@@H]1O` [Digoxin] as the compound, how does the “Ki or IC50” value (OCTN2 [2]) read?
A: Its value is “Not inhibitor”.

Q: For `O=C1[C@H](CC[C@H](O)c2ccc(F)cc2)[C@@H](c2ccc(O)cc2)N1c1ccc(F)cc1` [Ezetimibe], which Ki (OCTN2 [5]) is on record?
A: The Ki was 29.3 ± 5 µM.

Q: And the “Documented” value [3]?
A: Its value is “Yes with statin[15]”.

Q: For `NC(N)=Nc1nc(CSCCC(N)=NS(N)(=O)=O)cs1` [Famotidine], which Ki (OCTN2 [1]) is on record?
A: Its Ki is 1920 µM.

Q: What about the “Documented” value [3] of the same compound?
A: Its value is “Yes[18]”.

Q: For `NS(=O)(=O)c1cc(C(=O)O)c(NCc2ccco2)cc1Cl` [Furosemide], which “Documented” value [3] is on record?
A: Its value is “No”.

Q: With `NCC1(CC(=O)O)CCCCC1` [Gabapentin] as the compound, how does the “Documented” value [3] read?
A: Its value is “No”.

Q: With `Cc1c(F)c(N2CCNC(C)C2)cc2c1c(=O)c(C(=O)O)cn2C1CC1` (stereo not drawn) [Grepafloxacin] as the compound, how does the Ki (OCTN2 [8]) read?
A: The Ki was 300 µM.

Q: For `CCc1c2c(nc3ccc(OC(=O)N4CCC(N5CCCCC5)CC4)cc13)-c1cc3c(c(=O)n1C2)COC(=O)[C@]3(O)CC` [Irinotecan], which Ki (OCTN2 [5]) is on record?
A: Its Ki is 219 ± 18 µM.

Q: What does the source list for `CCN(CC)CC(=O)Nc1c(C)cccc1C` [Lidocaine]?
A: Ki or IC50 (OCTN2 [9]): Not inhibitor; Documented to cause rhabdomyolysis and/or carnitine deficiency in the literature [3]: No

Q: Which “Ki or IC50” value (OCTN2 [2]) does the source give for `CC12CC3CC(C)(C1)CC(N)(C3)C2` [Memantine] here?
A: Its value is “Not inhibitor”.

Q: And the “Documented” value [3]?
A: The value was “No”.

Q: Which results are given for `CN(C)C(=N)N=C(N)N` [Metformin]?
A: Ki (OCTN2 [1]): 4960 µM; Documented to cause rhabdomyolysis and/or carnitine deficiency in the literature [3]: Yes[14]

Q: With `COCCc1ccc(OCC(O)CNC(C)C)cc1` (stereo not drawn) [Metoprolol] as the compound, how does the “Ki or IC50” value (OCTN2 [2]) read?
A: Its value is “Not inhibitor”.

Q: What does the source list for `C[N+](C)(C)NCCC(=O)[O-]` [Mildronate]?
A: Ki (OCTN2 [2]): 26 µM; Documented to cause rhabdomyolysis and/or carnitine deficiency in the literature [3]: No

Q: Which Ki (OCTN2 [5]) does the source give for `CNC(=C[N+](=O)[O-])NCCSCc1csc(CN(C)C)n1` [Nizatidine] here?
A: Its Ki is 183 ± 17 µM.

Q: And the “Documented” value [3]?
A: The value was “No”.

Q: With `COc1ccc2[nH]c([S+]([O-])Cc3ncc(C)c(OC)c3C)nc2c1` (stereo not drawn) [Omeprazole] as the compound, how does the Ki (Rat kidney OCTN2) read?
A: The Ki was 14.6 µM.

Q: And the “Documented” value [3]?
A: Its value is “Yes[6]”.

Q: What does the source list for `O=C1[O][Pt]2([NH][C@@H]3CCCC[C@H]3[NH]2)[O]C1=O` [Oxaliplatin]?
A: Ki or IC50 (rat OCTN2 [6]): Not inhibitor; Documented to cause rhabdomyolysis and/or carnitine deficiency in the literature [3]: No

Q: What does the source list for `OC1(c2ccc(Cl)c(C(F)(F)F)c2)CCN(CCCC(c2ccc(F)cc2)c2ccc(F)cc2)CC1` [Penfluridol]?
A: Ki (OCTN2 [5]): 26.5 ± 4.1 µM; Documented to cause rhabdomyolysis and/or carnitine deficiency in the literature [3]: No

Q: Which results are given for `CCCN(CCC)S(=O)(=O)c1ccc(C(=O)O)cc1` [Probenecid]?
A: Ki or IC50 (OCTN2 [9]): Not inhibitor; Documented to cause rhabdomyolysis and/or carnitine deficiency in the literature [3]: No

Q: Which Ki (OCTN2 [5]) does the source give for `COC(=O)[C@H]1[C@H]2C[C@@H]3c4[nH]c5cc(OC)ccc5c4CCN3C[C@H]2C[C@@H](OC(=O)c2cc(OC)c(OC)c(OC)c2)[C@@H]1OC` [Reserpine] here?
A: Its Ki is 32.2 ± 4.8 µM.

Q: What about the “Documented” value [3] of the same compound?
A: The value was “No”.

Q: For `Cc1nc2n(c(=O)c1CCN1CCC(c3noc4cc(F)ccc34)CC1)CCCC2` [Risperidone], which “Documented” value [3] is on record?
A: The value was “Yes with statin[17]”.

Q: Which “Documented” value [3] does the source give for `CC(C)c1nc(CN(C)C(=O)N[C@H](C(=O)N[C@@H](Cc2ccccc2)C[C@H](O)[C@H](Cc2ccccc2)NC(=O)OCc2cncs2)C(C)C)cs1` [Ritonavir] here?
A: The value was “Yes with statin[5]”.

Q: What does the source list for `CC[C@H]1OC(=O)[C@H](C)[C@@H](O[C@H]2C[C@@](C)(OC)[C@@H](O)[C@H](C)O2)[C@H](C)[C@@H](O[C@@H]2O[C@H](C)C[C@H](N(C)C)[C@H]2O)[C@](C)(O)C[C@@H](C)/C(=N\OCOCCOC)[C@H](C)[C@@H](O)[C@]1(C)O` [Roxithromycin]?
A: Ki (OCTN2 [5]): 333 ± 25 µM; Documented to cause rhabdomyolysis and/or carnitine deficiency in the literature [3]: Yes with statin[10]

Q: For `CC(=O)S[C@@H]1CC2=CC(=O)CC[C@]2(C)[C@H]2CC[C@@]3(C)[C@@H](CC[C@@]34CCC(=O)O4)[C@H]12` [Spironolactone], which Ki (OCTN2 [2]) is on record?
A: The Ki was 26 µM.

Q: And the “Documented” value [3]?
A: Its value is “No”.

Q: Which Ki (rat OCTN2 [10]) does the source give for `Nc1c2c(nc3ccccc13)CCCC2` [Tacrine] here?
A: The Ki was 500 µM.

Q: And the Cmax [7]?
A: The Cmax was 134 nM.

Q: Which “Documented” value [3] does the source give for `CCCC(CCC)C(=O)O` [Valproic acid] here?
A: The value was “Yes[1]”.

Q: Which “Documented” value [3] does the source give for `CC[C@]1(O)C[C@H]2CN(CCc3c([nH]c4ccccc34)[C@@](C(=O)OC)(c3cc4c(cc3OC)N(C=O)[C@H]3[C@@](O)(C(=O)OC)[C@H](OC(C)=O)[C@]5(CC)C=CCN6CC[C@]43[C@@H]65)C2)C1` [Vincristine] here?
A: Its value is “Yes[8]”.

Q: Which Ki (OCTN2 [5]) does the source give for `CCC1=C[C@@H]2CN(C1)Cc1c([nH]c3ccccc13)[C@@](C(=O)OC)(c1cc3c(cc1OC)N(C)[C@H]1[C@@](O)(C(=O)OC)[C@H](OC(C)=O)[C@]4(CC)C=CCN5CC[C@]31[C@@H]54)C2` [Vinorelbine] here?
A: Its Ki is 26.8 ± 1.5 µM.

Q: What about the “Documented” value [3] of the same compound?
A: The value was “No”.

Q: With `Cc1cn([C@H]2C[C@H](N=[N+]=[N-])[C@@H](CO)O2)c(=O)[nH]c1=O` [Zidovudine] as the compound, how does the Ki [11] read?
A: The Ki was 6 µM.

Q: Which results are given for Ciclotropium?
A: Ki (OCTN2 [1]): 30 µM; Documented to cause rhabdomyolysis and/or carnitine deficiency in the literature [3]: No; Cmax [7]: 20.6 nM
